According to publication PMC10347545 (Journal of the American Chemical Society, 2023):

Columns and labels:
PPARγ-RXRα heterodimer = PPARγ-RXRα heterodimer formation assay; type: biochemical
COS7 cells = experiment: Toxicity assay; type: cell-based; settings: up to 100 μM, 24 h
PPARγ LBD [1] = biological target: T1, PPARγ LBD (Homo sapiens, UniProt P37231); experiment: MS-based PPARγ ligand binding assay; settings: 0.2–4 μM, absence and presence of 1 μM pioglitazone
T1 sequence (P37231 238-503 limits assumed): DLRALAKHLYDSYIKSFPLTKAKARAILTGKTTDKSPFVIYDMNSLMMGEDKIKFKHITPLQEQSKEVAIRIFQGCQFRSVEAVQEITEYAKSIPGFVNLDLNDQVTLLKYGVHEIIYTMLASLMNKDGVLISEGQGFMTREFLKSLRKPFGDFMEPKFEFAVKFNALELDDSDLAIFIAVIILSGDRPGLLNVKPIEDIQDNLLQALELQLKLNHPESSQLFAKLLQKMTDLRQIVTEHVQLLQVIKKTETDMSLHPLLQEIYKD

FOXO = experiment: FoxO response element; type: cell-based; settings: HepG2 cells, over time
PPARγ LBD [2] = biological target: T1, PPARγ LBD; type: binding
HepG2 cells = experiment: Differential gene expression; type: cell-based; settings: 20 μM
FOXO3a = FOXO3a Ser253 phosphorylation; type: cell-based; settings: 20 μM, 16 h
nuclear receptors = experiment: Selectivity profiling in Gal4-hybrid reporter gene assays; type: cell-based, human; settings: 100 μM
PPARγ LBD [3] = biological target: T1, PPARγ LBD; type: biochemical
[4] = tested on: human PPAR response element (PPRE); experiment: PPRE reporter assay in HepG2 cells; type: cell-based
[5] = tested on: human adipocyte-derived stem cells (ASC; ASC52telo, hTERT); experiment: Adipocyte-derived stem cell differentiation; type: cell-based
[6] = tested on: genes comprising a PPAR response element; settings: cited from earlier work

CC1(C)CCC(C)(C)c2cc(C3(c4ccc(C(=O)O)cc4)OCCO3)ccc21 [SR11237, reference compound]
PPARγ:RXR heterodimerization (PPARγ-RXRα heterodimer): enhanced

O=C(O)CSc1nc(Cl)cc(Nc2cccc(OCCc3ccccc3)c2)n1 [compound 2]
cytotoxic effects (apoptosis, necrosis) (COS7 cells): no cytotoxic effects | binding of 2 to the PPARγ LBD (PPARγ LBD [1]): dose-dependent manner | transcriptional activity of FOXO (FHRE activity) (FOXO): diminished | thermal stabilization of the PPARγ LBD (PPARγ LBD [2]): additive thermal stabilization | canonical PPAR signaling (gene expression) (HepG2 cells): no induction | number of protein coding genes with significantly altered expression (HepG2 cells; p-value <0.05, |log2(fold change)| > 1): 1750 | phosphorylation of FOXO3a at Ser253 (FOXO3a): promoted phosphorylation | agonism / antagonism on nuclear receptors (nuclear receptors): neither revealed agonism nor antagonistic effects | CBP-1 recruitment (PPARγ LBD [3]): displaced | DRIP2 recruitment (PPARγ LBD [3]): displaced | NCOR recruitment (PPARγ LBD [3]): enhanced binding | NCoA6 recruitment (PPARγ LBD [3]): weaker recruitment | PGC-1α recruitment (PPARγ LBD [3]): weaker recruitment | SMRT recruitment (PPARγ LBD [3]): enhanced binding | transcriptional activity via PPRE ([4]; alone): induced transcriptional activity | pioglitazone-mediated PPRE activation ([4]; with pioglitazone): enhanced pioglitazone-mediated PPRE activation | PPARγ:RXR heterodimerization (PPARγ-RXRα heterodimer): decreased heterodimer formation | dimer stabilization by pioglitazone (PPARγ-RXRα heterodimer): abrogated | pioglitazone-induced adipogenesis [5]: diminished | adipogenesis (ASC differentiation) ([5]; 50 μM): did not cause adipogenesis

CCc1ccc(CCOc2ccc(CC3SC(=O)NC3=O)cc2)nc1 (centres unmarked) [pioglitazone, reference compound]
FOXO signaling-related gene expression [6]: no effect | PPARγ:RXR heterodimerization (PPARγ-RXRα heterodimer): enhanced
